# Source: US4321384A, “Antihypertensive agents” (American Home Products Corporation, priority 1981, dated 1982)
# Counter-ions that a name gives are not always drawn.
# How the values were obtained:
# [1] = system: rabbit aortic strips; experiment: Ca+2 antagonism: relaxation of potassium-contracted rabbit aortic strips; format: cell-based; conditions: Oryctolagus cuniculus; 10^-6 M bath concentration; strips contracted with 100 millimoles potassium ion; read-out: percent relaxation (P.R.)
# [2] = system: spontaneously hypertensive rats; experiment: Systolic blood pressure lowering in spontaneously hypertensive rats; format: in vivo, rat
# Protocol: The in vivo blood pressure lowering ability of the compounds of this invention was established by measuring the systolic pressure of spontaneously hypertensive rats with a Decker Caudal Plethysmograph or similar sensor device. The compound being tested is administered to groups of four rats and their blood pressure is read prior to compound administration and at 1.5 and 4 hours after compound administration. Depending upon the behavior of the compound being tested, the schedule of blood pressure readings and route of administration is modified. Initially the compounds are administered orally but where compound solubility is a factor, the compounds may be administered parenterally (i.e. i.p., i.m., s.c., i.v., etc.) as desired. The compounds of this invention were initially administered orally at a standard testing dose of 50 mg/kg.
# The following examples illustrate the preparation of a representative number of compounds of this invention. After each example, the Ca^+2 antagonist activity of the compound is presented in terms of percent relaxation (P.R.) at the stated concentration. Similarly, the antihypertensive activity is reported in terms of millimeters mercury (mmHg) blood pressure (B.P.) reduction at the stated time post 50 mg/kg oral dosing.
# [3] = system: rabbit aortic strips; experiment: Ca+2 antagonism: relaxation of potassium-contracted rabbit aortic strips; format: cell-based; conditions: Oryctolagus cuniculus; 10^-5 M bath concentration; strips contracted with 100 millimoles potassium ion; read-out: percent relaxation (P.R.)
# Protocol: After a stable active tension has developed in the strip, as measured by Statham UC-2 force transducers and recorded on an eight channel Beckman Dynograph Polygraphic Recorder, an amount of the antagonist was added to the organ bath to make a 10^-5 molar concentration of antagonist. The […] effect, expressed as percent relaxation, was taken from the mean of at least two experiments. […] A Ca^+2 antagonist producing a 20 percent relaxation of aortic tissue in this test procedure at a 10^-5 molar bath concentration of the antagonist, generally produces a significant reduction in blood pressure when a sufficient amount is given to the spontaneously hypertensive rat. The following examples illustrate the preparation of a representative number of compounds of this invention. After each example, the Ca^+2 antagonist activity of the compound is presented in terms of percent relaxation (P.R.) at the stated concentration. Similarly, the antihypertensive activity is reported in terms of millimeters mercury (mmHg) blood pressure (B.P.) reduction at the stated time post 50 mg/kg oral dosing.
# [4] = 1.5 hours post 50 mg/kg oral dosing
# [5] = 4 hours post 50 mg/kg oral dosing
Structure (SMILES),inhibition at 1 µM [1],"blood pressure (B.P.) reduction [2, 4]","blood pressure (B.P.) reduction [2, 5]",inhibition at 10 µM [3]
"COC(=O)C1=C(C)NC2=C(C(=O)CN(Cc3ccccc3)C2)C1c1ccccc1C(F)(F)F (centres unmarked) [Example 5, 1,4,5,6,7,8-Hexahydro-2-methyl-5-oxo-7-(phenylmethyl)-4-[2-(trifluoromethyl)phenyl]-1,7-naphthyridine-3-carboxylic acid methyl ester]",40%,,,
"COC(=O)C1=C(C)NC2=C(C(=O)CN(Cc3ccccc3)C2)C1c1ccccc1C (centres unmarked) [Example 3, 1,4,5,6,7,8-Hexahydro-2-methyl-4-(2-methylphenyl)-5-oxo-7-(phenylmethyl)-1,7-naphthyridine-3-carboxylic acid methyl ester]",90%,-23 mmHg,-41 mmHg,
"COC(=O)C1=C(C)NC2=C(C(=O)CN(C)C2)C1c1cccc([N+](=O)[O-])c1 (centres unmarked) [Example 6, 1,4,5,6,7,8-Hexahydro-2,7-dimethyl-4-(3-nitrophenyl)-5-oxo-1,7-naphthyridine-3-carboxylic acid methyl ester]",,-85 mmHg,-47 mmHg,35%
"COC(=O)C1=C(C)NC2=C(C(=O)CN(C)C2)C1c1cccc(C)c1C (centres unmarked) [Example 17, 4-(2,3-Dimethylphenyl)-1,4,5,6,7,8-hexahydro-2,7-dimethyl-5-oxo-1,7-naphthyridine-3-carboxylic acid methyl ester]",,,-40 mmHg,54%
"COC(=O)C1=C(C)NC2=C(C(=O)CN(Cc3ccccc3)C2)C1c1cccc([N+](=O)[O-])c1 (centres unmarked) [Example 10, 1,4,5,6,7,8-Hexahydro-2-methyl-4-(3-nitrophenyl)-5-oxo-7-(phenylmethyl)-1,7-naphthyridine-3-carboxylic acid methyl ester]",89.7%,,,
"COC(=O)C1=C(C)NC2=C(C(=O)CN(Cc3ccccc3)C2)C1c1cccc(C(F)(F)F)c1 (centres unmarked) [Example 14 intermediate, 1,4,5,6,7,8-hexahydro-2-methyl-5-oxo-7-(phenylmethyl)-4-[3-(trifluoromethyl)phenyl]-1,7-naphthyridine-3-carboxylic acid methyl ester hydrochloride]",46.2%,,,
"COC(=O)C1=C(C)NC2=C(C(=O)CNC2)C1c1cccc(C(F)(F)F)c1 (centres unmarked) [Example 14, 1,4,5,6,7,8-Hexahydro-2-methyl-5-oxo-4-[3-(trifluoromethyl)phenyl]-1,7-naphthyridine-3-carboxylic acid methyl ester]",,-51 mmHg,-43 mmHg,84%
"CCCCc1ccccc1C1C(C(=O)OC)=C(C)NC2=C1C(=O)CN(Cc1ccccc1)C2 (centres unmarked) [Example 18, 4-[2-(n-butyl)phenyl]-1,4,5,6,7,8-Hexahydro-2-methyl-5-oxo-7-(phenylmethyl)-1,7-naphthyridine-3-carboxylic acid methyl ester]",61%,,,
"CCCCc1ccccc1C1C(C(=O)OC)=C(C)NC2=C1C(=O)CNC2 (centres unmarked) [Example 19, 4-[2-(n-butyl)phenyl]-1,4,5,6,7,8-hexahydro-2-methyl-5-oxo-1,7-naphthyridine-3-carboxylic acid methyl ester]",,-24 mmHg,,49.2%
"COC(=O)C1=C(C)NC2=C(C(=O)CN(C)C2)C1c1ccccc1[N+](=O)[O-] (centres unmarked) [Example 1, 1,4,5,6,7,8-Hexahydro-2,7-dimethyl-4-(2-nitrophenyl)-5-oxo-1,7-naphthyridine-3-carboxylic acid methyl ester]",,-27 mmHg,-21 mmHg,14%
"CC1=C(C(=O)OCCN(C)Cc2ccccc2)C(c2ccccc2C(F)(F)F)C2=C(CN(Cc3ccccc3)CC2=O)N1 (centres unmarked) [Example 22, 1,4,5,6,7,8-Hexahydro-2-methyl-5-oxo-7-phenylmethyl-4-[2-(trifluoromethyl)phenyl]-1,7-naphthyridine-3-carboxylic acid, 2-(N-benzyl-N-methylamino)ethylester]",55.6%,-74 mmHg,-68 mmHg,
"COC(=O)C1=C(C)NC2=C(C(=O)CNC2)C1c1ccccc1C (centres unmarked) [Example 7, 1,4,5,6,7,8-Hexahydro-2-methyl-4-(2-methylphenyl)-5-oxo-1,7-naphthyridine-3-carboxylic acid:methyl ester]",,-77 mmHg,-64 mmHg,46%
"COC(=O)C1=C(C)NC2=C(C(=O)CN(Cc3ccccc3)C2)C1c1cccc(C)c1C (centres unmarked) [Example 20, 4-(2,3-dimethylphenyl)-1,4,5,6,7,8-hexahydro-2-methyl-5-oxo-7-(phenylmethyl)-1,7-naphthyridine-3-carboxylic acid methyl ester]",33.3%,-24 mmHg,-39 mmHg,80.4%
"COC(=O)C1=C(C)NC2=C(C(=O)CN(C)C2)C1c1ccccc1C(F)(F)F (centres unmarked) [Example 4, 1,4,5,6,7,8-Hexahydro-2,7-dimethyl-5-oxo-4-[2-(trifluoromethyl)-phenyl]-1,7-naphthyridine-3-carboxylic acid methyl ester]",,-68 mmHg,-70 mmHg,48%
"COC(=O)C1=C(C)NC2=C(C(=O)CN(C)C2)C1c1cc(C)ccc1C (centres unmarked) [Example 11, 4-(2,5-Dimethylphenyl)-1,4,5,6,7,8-hexahydro-2,7-dimethyl-5-oxo-1,7-naphthyridine-3-carboxylic acid methyl ester]",,,,22%
"COC(=O)C1=C(C)NC2=C(C(=O)CNC2)C1c1ccccc1F (centres unmarked) [Example 15, 4-(2-Fluorophenyl)-1,4,5,6,7,8-hexahydro-2-methyl-5-oxo-1,7-naphthyridine-3-carboxylic acid methyl ester]",,-45 mmHg,,54%
"COC(=O)C1=C(C)NC2=C(C(=O)CNC2)C1c1cccc(C)c1C (centres unmarked) [Example 21, 4-(2,3-dimethylphenyl)-1,4,5,6,7,8-hexahydro-2-methyl-5-oxo-1,7-naphthyridine-3carboxylic acid methyl ester]",,-42 mmHg,-45 mmHg,76.7%
"COC(=O)C1=C(C)NC2=C(C(=O)CNC2)C1c1ccccc1C(F)(F)F (centres unmarked) [Example 12, 1,4,5,6,7,8-Hexahydro-2-methyl-5-oxo-4-[2-(trifluoromethyl)phenyl]-1,7-naphthyridine-3-carboxylic acid methyl ester]",,-88 mmHg,,89.1%
"COC(=O)C1=C(C)NC2=C(C(=O)CN(C)C2)C1c1ccccc1C (centres unmarked) [Example 2, 1,4,5,6,7,8-Hexahydro-2,7-dimethyl-4-(2-methylphenyl)-5-oxo-1,7-naphthyridine-3-carboxylic acid methyl ester]",,-57 mmHg,-28 mmHg,31%
"COC(=O)C1=C(C)NC2=C(C(=O)CN(C)C2)C1c1ccccc1Cl (centres unmarked) [Example 8, 4-(2-chlorophenyl)-1,4,5,6,7,8-Hexahydro-2,7-dimethyl-5-oxo-1,7-naphthyridine-3-carboxylic acid methyl ester]",,-54 mmHg,-30 mmHg,28.3%
"COC(=O)C1=C(C)NC2=C(C(=O)CN(C)C2)C1c1c(Cl)cccc1Cl (centres unmarked) [Example 9, 4-(2,6-Dichlorophenyl)-1,4,5,6,7,8-hexahydro-2,7-dimethyl-5-oxo-1,7-naphthyridine-3-carboxylic acid methyl ester]",,-22 mmHg,-43 mmHg,41.5%
"COC(=O)C1=C(C)NC2=C(C(=O)CN(Cc3ccccc3)C2)C1c1ccccc1F (centres unmarked) [Example 15 intermediate, 4-(2-fluorophenyl)-1,4,5,6,7,8-hexahydro-2-methyl-5-oxo-7-(phenylmethyl)-1,7-naphthyridine-3-carboxylic acid methyl ester hydrochloride]",48%,,,
"COC(=O)C1=C(C)NC2=C(C(=O)CN(C)C2)C1c1cccc(C#N)c1 (centres unmarked) [Example 16, 4-(3-Cyanophenyl)-1,4,5,6,7,8-Hexahydro-2,7-dimethyl-5-oxo-1,7-naphthyridine-3-carboxylic acid methyl ester]",,-53 mmHg,,66%
